Test results reported in article PMC11035696, “Prospective de novo drug design with deep interactome learning” (Nature Communications, 2024).

Columns and labels:
[1] = Microsomal clearance, mouse; type: in vitro ADME; details: mouse microsomes, single point measurement
Description: (§1) Compounds 1–3 were characterized in a hybrid reporter gene assay for their agoniztic effect on human nuclear receptors PPARα/γ/δ, RXRα, FXRα, RARα in HEK293T cells. Compound 1 was tested in an isothermal titration calorimetry (ITC) assay to measure direct binding affinity to the ligand-binding domain of PPARγ. ADME properties were measured in standardized assays at Roche.
(§2) SI11Absorption Distribution Metabolism and Excretion and Toxicity Data
(§3) To assess the drug-like characteristics of the newly designed PPAR modulators, a series of tests were conducted covering various aspects of absorption, distribution, metabolism, and excretion (ADME) properties. Specifically, these assessments included the parallel artificial membrane permeability assay (PAMPA) with permeation co- […]
(§4) efficients ([…]), LogD measurements, microsomal clearance, hepatocyte clearance, P-glycoprotein (Pgp) efflux ratio and binding and the unbound free fraction. […] For seven selected CYP proteins (i.e., Cyp3A4, Cyp1A2, Cyp2B6, Cyp2C9, Cyp2D6, Cyp2C19, and Cyp2C8) the half maximal inhibitory con-centration (IC50) was determined. […]
(§5) Compounds 1 and 2 were validated for cytotoxicity on HEK293T cells. Figure S16 depicts the measured cyto-toxicity at two time points (i.e., 16h and 24h), 10 different concentrations (i.e., 0.05 - 20 µM), and 5 different

[2] = Lipophilicity (LogD pH 7.4); type: physicochemical
Description: as §1, §2, §3
(§6) efficients ([…]), LogD measurements, microsomal clearance, hepatocyte clearance, P-glycoprotein (Pgp) efflux ratio and binding and the unbound free fraction. […]
(§7) Table S14: Absorption distribution metabolism and excretion (ADME) properties of compounds 1 and 2. The […]
(§8) values for […], LogD, protein binding, P-glycoprotein (Pgp) efflux ratio and permeability, and hepato-cyte clearance are presented as the mean and standard deviation, with a sample size of N = 3, i.e., 3 technical replicates each. The values for microsomal clearance and CYP-inhibition represent single point measurements. […]

[3] = Parallel artificial membrane permeability assay (PAMPA); type: in vitro ADME; details: read-out: […] permeation coefficient
Description: as §1, §2, §3, §6, §7, §8

[4] = Microsomal clearance, rat; type: in vitro ADME; details: rat microsomes, single point measurement
Description: as §1, §2, §3, §4, §5

[5] = Microsomal clearance, human; type: in vitro ADME; details: human microsomes, single point measurement
Description: as §1, §2, §3, §4, §5

Compound: CO[C@@H](Cc1ccc(OCCc2nc(-c3ccccc3)oc2C)c2ccsc12)C(=O)O [aleglitazar]
- Microsomal clearance, mouse [1]: ≥ 10 µL·min−1·mg−1 protein
- logD [2]: 1.4
- Papp [3]: 6 ×10⁻⁶ cm/s
- Microsomal clearance, rat [4]: ≥ 10 µL·min−1·mg−1 protein
- Microsomal clearance, human [5]: ≥ 10 µL·min−1·mg−1 protein
